{"source": "patent US20220288091A1", "about": "“Method for Improving Insulin Sensitivity” (priority 2019, published 2022)", "tested_on": "overweight or obese subjects with prediabetes or mild type 2 diabetes", "assay": "75-g oral glucose tolerance test (OGTT)", "assay_type": "in vivo, human", "details": "50 mg every 6 hours for 9 days", "experimental": "A randomized, placebo-controlled, double-blind crossover trial was conducted to evaluate the use of an anti-glucocorticoid as a means for ameliorating insulin resistance. Mifepristone, 50 mg, or a placebo, was administered every six hours for nine days to sixteen overweight or obese (BMI 25-37 kg/m^2) subjects (seven women). Participant ages ranged from 48 to 64 years. Ten had prediabetes and six had mild diabetes type II (HgbA1c less than 7%). Treatment of the glucose disorder with diet or a stable dose of metformin (used by two patients) was maintained for three (3) months before the study. The interventions were nine days of mifepristone or placebo treatment followed by a six (6) to eight (8) week wash out and cross over to the other arm. At baseline and at the end of each treatment period, parameters of insulin sensitivity were assessed by a frequently sampled intravenous glucose tolerance test (FSIVGTT) and an oral glucose tolerance test (OGTT). A whole body glucose disposal index of insulin sensitivity (SI) was derived using a minimal model analysis. Adipose tissue-SI, which reflects insulin-induced free fatty acid suppression, was estimated by the log-linear slope of free fatty acid levels and the AUC of insulin during the FSIVGTT. Matsuda index, oral glucose insulin sensitivity index (OGIS, ml/min/m^2), and hepatic insulin resistance index (HIRI, mg/dl×microU/ml×10^5) were derived from OGTT. Adipo-IR, a surrogate measure of adipocyte insulin resistance, was calculated by multiplying fasting concentrations of free fatty acids and insulin (mmol×pmol/L). Comparison of various post-treatment parameters was performed using crossover ANOVA. This analysis takes into account specific treatment arm, treatment order, and treatment effects. Thus, carryover effects were explicitly tested for in the crossover study.\nOn day 3 of baseline and post-treatment testing, subjects underwent a 75-gram OGTT. Serial blood draws for measurement of glucose, insulin and c-peptide were obtained at −5, 0, 30, 60, 90, 120, 150, and 180 minutes.\nThe Matsuda index and Oral Glucose Insulin Sensitivity Index (OGIS), surrogate indices of whole-body insulin sensitivity were derived from plasma glucose and insulin concentrations during the OGTT as previously described. Abdul-Ghani M A, et. al., Diabetes Care 2007; 30 (1): 89-94. HIRI was calculated as the product of the area under the curves of glucose and insulin for the first 30 minutes of the OGTT. Abdul-Ghani M A, ibid. The Adipo-IR index, a surrogate measure for fasting adipose adipose-tissue insulin resistance, was calculated as the product of fasting insulin and fasting FFA. Sondergaard E. et al., J. Clin. Endocrinol. Metab. 2017; 102(4):1193-9. A dynamic surrogate index of adipose tissue insulin sensitivity was assessed by calculating insulin's ability to suppress FFA levels during a FSIVGTT. Carpenter A. et al., Diabetes 2002; 51(6):1867-75 and Trottier A. et al. Fertil. Steril. […]; 98 (6):1627-34. The adipose tissue insulin sensitivity index was calculated as the ratio of the slope of the linear decrease in natural log transformed FFA [Ln (FFA) slope] during the first 90 minutes of the FSIVGTT and the AUC of insulin during that 90-minute period (AUCInsulin 0-90 min). Mathematical modeling of C-peptide concentrations was used to estimate insulin secretory rates and calculate β-cell responsivity parameters (basal (∅B); first-phase (∅1); second phase (∅2); and total (∅TOT) as previously described. Toffolo G. et al., Metabolism 1999; 48 (9):1162-6 and Cobelli C. et al. Am. J. Physiol. Endocrinol. Metab. 2007; 293 (1): E1-E5. Assuming an absence of hepatic C-peptide extraction, postprandial insulin clearance was calculated as the ratio of mean insulin secretion and insulin concentration. Trico D. et al. JCI Insight 2018; 3(24):e124912.", "data": [{"compound": "CC#C[C@]1(O)CC[C@H]2[C@@H]3CCC4=CC(=O)CCC4=C3[C@@H](c3ccc(N(C)C)cc3)C[C@@]21C", "note": "[Mifepristone, 11beta-[p-(dimethylamino)phenyl]-17alpha-(1-propynl)estra-4,9-dien-17beta-ol-3-one]", "values": [{"measurement": "Insulin clearance during OGTT vs placebo", "value": "lower"}, {"measurement": "AUC for glucose during OGTT vs placebo", "setting": "3-hr OGTT", "value": "not statistically significant"}, {"measurement": "AUC for insulin during OGTT, lower compared to placebo", "setting": "3-hr OGTT", "value": "about 25%"}, {"measurement": "Hepatic Insulin Resistance Index (HIRI)", "setting": "AUC glucose × AUC insulin, first 30 min of OGTT, mean±SD, n=16", "value": "50.2±38.7", "unit": "mg/dl×microU/ml×10^5"}, {"measurement": "Fasting insulin secretory rate (ISR) vs placebo", "setting": "C-peptide modeling", "value": "significantly lower"}, {"measurement": "ISR during OGTT vs placebo", "setting": "C-peptide modeling", "value": "not different"}, {"measurement": "Static, dynamic and total β-cell responsivity indices vs placebo", "setting": "derived from OGTT", "value": "similar"}]}]}
